Test results reported in patent publication US8741897B2, “Glucocorticoid mimetics, methods of making them, pharmaceutical compositions and uses thereof” (Boehringer Ingelheim Pharmaceuticals Inc., priority 2003, dated 2014).

Test system: glucocorticoid receptor function
Experiment: one or more of the above assays (GR binding and glucocorticoid receptor cell assays: aromatase, IL-6, TAT, MMTV-Luc, IL-8, ICAM-Luc)
Assay type: cell-based
Conditions: assay not specified per compound
Protocol: B. Glucocorticoid Receptor Cell Assays
1. Induction of Aromatase in Fibroblasts (Cell Assay for Transactivation)
Dexamethasone, a synthetic ligand to the glucocorticoid receptor (GR), induces expression of aromatase in human foreskin fibroblast cells. The activity of aromatase is measured by the conversion of testosterone to estradiol in culture media.
On the day of the experiment, the media in the wells is replaced with fresh media. Cells are treated with test compounds to final concentrations of 10^−5 M to 10^−8 M, and testosterone to a final concentration of 300 ng/mL. Each well has a total volume of 100 μL. Samples are made in duplicates. Control wells include: (a) wells that receive testosterone only, and (b) wells that receive testosterone plus 2 μM of dexamethasone to provide maximum induction of aromatase. Plates are incubated at 37° C. overnight (15 to 18 hours), and supernatants are harvested at the end of incubation. […] The amount of estradiol is inversely proportional to the ELISA signals in each well. The extent of aromatase induction by test compounds is expressed as a relative percentage to dexamethasone. EC50 values of test compounds are derived by non-linear curve fitting.
2. Inhibition of IL-6 Production in Fibroblasts (Cell Assay for Transrepression)
Human foreskin fibroblast cells produce IL-6 in response to stimulation by proinflammatory cytokine IL-1.
On the next day, media in the wells is replaced with fresh media. Cells are treated with IL-1 (rhIL-1α, R&D Systems Cat. No. 200-LA) to a final concentration of 1 ng/mL, and with test compounds to final concentrations of 10^−5 M to 10^−8 M, in a total volume of 200 μL per well. Samples are done in duplicates. […] Positive control wells receive IL-1 only and represent maximum (or 100%) amount of IL-6 production. Plates are incubated at 37° C. overnight (15 to 18 hours), and supernatants are harvested at the end of incubation. IL-6 levels in the supernatants are determined by the ELISA kits for IL-6 (MedSystems Diagnostics GmbH, Vienna, Austria, Cat. No. BMS213TEN) according to manufacture's instructions. The extent of inhibition of IL-6 by test compounds is expressed in percentage relative to positive controls. IC50 values of test compounds are derived by non-linear curve fitting.
Evaluation of agonist or antagonist activity of compounds binding to the glucocorticoid receptor may be determined by any of the assays.
3. Modulation of Tyrosine Aminotransferase (TAT) Induction in Rat Hepatoma Cells
Testing of compounds for agonist or antagonist activity in induction of tyrosine aminotransferase (TAT) in rat hepatoma cells.
H4-II-E-C3 cells were incubated overnight in 96 well plates (20,000 cells/100 μL/well) in MEM medium containing 10% heat inactivated FBS and 1% nonessential amino acids. On the next day, cells were stimulated with the indicated concentrations of dexamethasone or test compound (dissolved in DMSO, final DMSO concentration 0.2%) for 18 hours. Control cells were treated with 0.2% DMSO. After 18 hours, the cells were lysed in a buffer containing 0.1% Triton X-100 and the TAT activity was measured in a photometric assay using tyrosine and alpha-ketoglutarate as substrates.
For measuring antagonist activity, the hepatoma cells were pre-stimulated by addition of dexamethasone (concentration ranges from 3×10^−9 M to 3×10^−8 M) shortly before the test compound was applied to the cells.
4. Modulation of MMTV-Luc Induction in HeLa Cells
Testing of compounds for agonist or antagonist activity in stimulation of MMTV-(mouse mammary tumor virus) promoter in HeLa cells.
Cells were cultured overnight in DMEM medium without phenol red, supplemented with 3% CCS (charcoal treated calf serum) and then transferred to 96 well plates (15,000 cells/100 μL/well).

Compound	activity as agonists of the glucocorticoid receptor function in one or more of the above assays
CC(C)(CC(O)(Cc1cc2cc(Br)ccc2[nH]1)C(F)(F)F)c1cc(Cl)cc2c1OCC2 (stereo not drawn) [2-(5-Bromo-1H-indol-2-ylmethyl)-4-(5-chloro-2,3-dihydrobenzofuran-7-yl)-1,1,1-trifluoro-4-methylpentan-2-ol]	potent agonists
COc1ccc(Br)cc1C(C)(C)CC(O)(Cc1cc2cc(OC(C)C)ncc2[nH]1)C(F)(F)F (stereo not drawn) [4-(5-Bromo-2-methoxyphenyl)-1,1,1-trifluoro-2-(5-isopropoxy-1H-pyrrolo[2,3-c]pyridin-2-ylmethyl)-4-methylpentan-2-ol]	potent agonists
Cc1ccc(F)cc1C(C)(C)CC(O)(Cc1cc2nc(-c3ccccc3)ncc2[nH]1)C(F)(F)F (stereo not drawn) [1,1,1-Trifluoro-4-(5-fluoro-2-methylphenyl)-4-methyl-2-(2-phenyl-5H-pyrrolo[3,2-d]pyrimidin-6-ylmethyl)pentan-2-ol]	potent agonists
COc1ccc(-c2cncnc2)cc1C(C)(C)CC(O)(Cc1cc2ccncc2[nH]1)C(F)(F)F (stereo not drawn) [1,1,1-Trifluoro-4-(2-methoxy-5-pyrimidin-5-ylphenyl)-4-methyl-2-(1H-pyrrolo[2,3-c]pyridin-2-ylmethyl)pentan-2-ol]	potent agonists
COc1nccc2[nH]c(CC(O)(CC(C)(C)c3cc(F)ccc3C)C(F)(F)F)cc12 (stereo not drawn) [1,1,1-Trifluoro-4-(5-fluoro-2-methylphenyl)-2-(4-methoxy-1H-pyrrolo[3,2-c]pyridin-2-ylmethyl)-4-methylpentan-2-ol]	potent agonists
CC(C)(CC(O)(Cc1cc2ncncc2[nH]1)C(F)(F)F)c1cc(F)cc2c1OCC2 (stereo not drawn) [1,1,1-Trifluoro-4-(5-fluoro-2,3-dihydrobenzofuran-7-yl)-4-methyl-2-(5H-pyrrolo[3,2-d]pyrimidin-6-ylmethyl)pentan-2-ol]	potent agonists
CC(C)(CC(O)(Cc1cc2cc(-c3ccncc3)ccc2[nH]1)C(F)(F)F)c1cc(F)cc2c1OCC2 (stereo not drawn) [1,1,1-Trifluoro-4-(5-fluoro-2,3-dihydrobenzofuran-7-yl)-4-methyl-2-(5-pyridin-4-yl-1H-indol-2-ylmethyl)pentan-2-ol]	potent agonists
COc1ccc(-c2cccnc2)cc1C(C)(C)CC(O)(Cc1cc2cc(Oc3ccccc3)ncc2[nH]1)C(F)(F)F (stereo not drawn) [1,1,1-Trifluoro-4-(2-methoxy-5-pyridin-3-ylphenyl)-4-methyl-2-(5-phenoxy-1H-pyrrolo[2,3-c]pyridin-2-ylmethyl)pentan-2-ol]	potent agonists
Cc1ccc(F)cc1C(C)(C)CC(O)(Cc1cc2ccncc2[nH]1)C(C)(C)C (stereo not drawn) [5-(5-Fluoro-2-methylphenyl)-2,2,5-trimethyl-3-(1H-pyrrolo[2,3-c]pyridin-2-ylmethyl)hexan-3-ol]	agonists
COc1ccc(F)cc1C(C)(C)CC(O)(Cc1cc2nc(C(C)C)ncc2[nH]1)C(F)(F)F (stereo not drawn) [1,1,1-Trifluoro-4-(5-fluoro-2-methoxyphenyl)-2-(2-isopropyl-5H-pyrrolo[3,2-d]pyrimidin-6-ylmethyl)-4-methylpentan-2-ol]	potent agonists
Cc1ccc(F)cc1C(C)(C)CC(O)(Cc1cc2ccncc2[nH]1)C1CC1 (stereo not drawn) [2-Cyclopropyl-4-(5-fluoro-2-methylphenyl)-4-methyl-1-(1H-pyrrolo[2,3-c]pyridin-2-yl)pentan-2-ol]	agonists
COc1ccc(Br)cc1C(C)(C)CC(O)(Cc1cc2cc(N3CCOCC3)ncc2[nH]1)C(F)(F)F (stereo not drawn) [4-(5-Bromo-2-methoxyphenyl)-1,1,1-trifluoro-4-methyl-2-(5-morpholin-4-yl-1H-pyrrolo[2,3-c]pyridin-2-ylmethyl)pentan-2-ol]	potent agonists
Cc1cccc2[nH]c(CC(O)(CC(C)(C)c3cc(S(C)(=O)=O)cc4c3OCC4)C(F)(F)F)cc12 (stereo not drawn) [1,1,1-Trifluoro-4-(5-methanesulfonyl-2,3-dihydrobenzofuran-7-yl)-4-methyl-2-(4-methyl-1H-indol-2-ylmethyl)pentan-2-ol]	potent agonists
COc1ccc(-c2cncnc2)cc1C(C)(C)CC(O)(Cc1cc2cnccc2[nH]1)C(F)(F)F (stereo not drawn) [1,1,1-Trifluoro-4-(2-methoxy-5-pyrimidin-5-ylphenyl)-4-methyl-2-(1H-pyrrolo[3,2-c]pyridin-2-ylmethyl)pentan-2-ol]	potent agonists
Cc1c(CC(O)(CC(C)(C)c2cc(-c3cccnc3)ccc2O)C(F)(F)F)[nH]c2cnccc12 (stereo not drawn) [4-Pyridin-3-yl-2-[4,4,4-trifluoro-3-hydroxy-1,1-dimethyl-3-(3-methyl-1H-pyrrolo[2,3-c]pyridin-2-ylmethyl)butyl]phenol]	potent agonists
CC(C)Oc1cc2cc(CC(O)(CC(C)(C)c3cccc(F)c3)C(F)(F)F)[nH]c2cn1 (stereo not drawn) [1,1,1-Trifluoro-4-(3-fluorophenyl)-2-(5-isopropoxy-1H-pyrrolo[2,3-c]pyridin-2-ylmethyl)-4-methylpentan-2-ol]	potent agonists
Cc1cncc2[nH]c(CC(O)(CC(C)(C)c3ccc(F)cc3O)C(F)(F)F)cc12 (stereo not drawn) [5-Fluoro-2-[4,4,4-trifluoro-3-hydroxy-1,1-dimethyl-3-(4-methyl-1H-pyrrolo[2,3-c]pyridin-2-ylmethyl)butyl]phenol]	potent agonists
COc1ccc(-c2cccc3ccccc23)cc1C(C)(C)CC(O)(Cc1cc2cc(N3CCOCC3)ncc2[nH]1)C(F)(F)F (stereo not drawn) [1,1,1-Trifluoro-4-(2-methoxy-5-naphthalen-1-ylphenyl)-4-methyl-2-(5-morpholin-4-yl-1H-pyrrolo[2,3-c]pyridin-2-ylmethyl)pentan-2-ol]	potent agonists
CC(C)(CC(O)(Cc1cc2nc(-c3ccccc3)ncc2[nH]1)C(F)(F)F)c1ccccc1 (stereo not drawn) [1,1,1-Trifluoro-4-methyl-4-phenyl-2-(2-phenyl-5H-pyrrolo[3,2-d]pyrimidin-6-ylmethyl)pentan-2-ol]	potent agonists
COc1ccc(F)cc1C(C)(C)CC(O)(Cc1cc2ccncc2[nH]1)C(C)(C)C (stereo not drawn) [5-(5-Fluoro-2-methoxyphenyl)-2,2,5-trimethyl-3-(1H-pyrrolo[2,3-c]pyridin-2-ylmethyl)hexan-3-ol]	agonists
COc1ccc(-c2ccsc2)cc1C(C)(C)CC(O)(Cc1cc2cc(OC(C)C)ncc2[nH]1)C(F)(F)F (stereo not drawn) [1,1,1-Trifluoro-2-(5-isopropoxy-1H-pyrrolo[2,3-c]pyridin-2-ylmethyl)-4-(2-methoxy-5-thiophen-3-ylphenyl)-4-methylpentan-2-ol]	potent agonists
